Earlier results in patent US20230309918A1, “TREATING PATHOGENIC INFECTIONS” (priority 2020, published 2023).

What was measured:
[1] = kidneys
NF-κB = conditions: pro-inflammatory signaling pathway involved in Lyme-induced inflammation
HSV-1 IE gene expression = conditions: diminishes the ability of the virus to launch the lytic infectious cycle
[2] = in vivo
Borrelia burgdorferi = conditions: one animal study (Pothineni et al., Sci Rep 2020)

In the case of `Nc1nc2c(ncn2COCCO)c(=O)[nH]1` [Acyclovir], the toxic side effects [1] is given as “toxic side effects in the kidneys”.
For `COc1cc(/C=C/C(=O)CC(=O)/C=C/c2ccc(O)c(OC)c2)ccc1O` [Curcumin], the “activation of NF-κB” value (NF-κB) is given as “blocking the activation of NF-κB”, the “effect on HSV-1 IE gene expression” value (HSV-1 IE gene expression) is given as “affect HSV-1 IE gene expression” and the oral bioavailability [2] is given as “poor”.
For `O=c1c(O)c(-c2ccc(O)c(O)c2)oc2cc(O)cc(O)c12` [Quercetin], the solubility in water is listed as “poorly soluble”.
In the case of `CC1(C)S[C@@H]2[C@H](NC(=O)[C@H](NC(=O)N3CCNC3=O)c3ccccc3)C(=O)N2[C@H]1C(=O)O` [azlocillin], the “killing of disease-causing bacteria Borrelia burgdorferi” value (Borrelia burgdorferi) is listed as “completely kills off”.
